Source: patent publication US20240208968A1, “ALPHA V BETA 6 AND ALPHA V BETA 1 INTEGRIN INHIBITORS AND USES THEREOF” (DiCE Molecules SV, Inc., priority 2021, published 2024)
Where a name gives a salt, the structure may show the parent alone.

Legend:
[1] = molecular target: αvβ6 (Homo sapiens, UniProt P06756+P18564); assay: Solid Phase Integrin αvβ6 Assay; assay type: binding
Procedure: (§1) The compounds exemplified in this document were tested for their ability to inhibit αvβ1 and αvβ6 in below described solid phase integrin assays.
Solid Phase Integrin αvβ6 Assay
96-well microtiter plates (4 HBX Immulon; Thermo Fisher Scientific, Waltham, MA) were coated with 100 μL/well of 1 μg/mL recombinant TGFb1-LAP in TBS at 4° C., overnight. The coating solution was removed, and plates were blocked with 200 μL/well of blocking and binding buffer (2% BSA/TBST, 1 mM MnCl2) at room temperature for 1 hr. Blocking buffer was removed and 50 uL of binding buffer and testing compounds were added. 50 μL of diluted αvβ6 (0.2 μg/mL in binding buffer) was added to wells (100 uL/well total) and plates incubated for 1 hr at room temperature. Wells were washed thrice with washing buffer (TBS, 0.05% Tween, 1 mM MnCl2) and plates were incubated with 100 μL/well of a 1:12500) dilution of streptavidin-horseradish peroxidase conjugate (Thermo Fisher Scientific) in binding buffer for 20 min at room temperature. Bound protein was detected using the substrate TMB. The IC50 values for testing compounds were calculated by Levenberg-Marquardt four parameter fitting logistics.

[2] = molecular target: αvβ1 (Homo sapiens, UniProt P05556+P06756); assay: Solid Phase Integrin αvβ1 Assay; assay type: binding
Chain of αvβ1 (P06756 31-992 limits assumed): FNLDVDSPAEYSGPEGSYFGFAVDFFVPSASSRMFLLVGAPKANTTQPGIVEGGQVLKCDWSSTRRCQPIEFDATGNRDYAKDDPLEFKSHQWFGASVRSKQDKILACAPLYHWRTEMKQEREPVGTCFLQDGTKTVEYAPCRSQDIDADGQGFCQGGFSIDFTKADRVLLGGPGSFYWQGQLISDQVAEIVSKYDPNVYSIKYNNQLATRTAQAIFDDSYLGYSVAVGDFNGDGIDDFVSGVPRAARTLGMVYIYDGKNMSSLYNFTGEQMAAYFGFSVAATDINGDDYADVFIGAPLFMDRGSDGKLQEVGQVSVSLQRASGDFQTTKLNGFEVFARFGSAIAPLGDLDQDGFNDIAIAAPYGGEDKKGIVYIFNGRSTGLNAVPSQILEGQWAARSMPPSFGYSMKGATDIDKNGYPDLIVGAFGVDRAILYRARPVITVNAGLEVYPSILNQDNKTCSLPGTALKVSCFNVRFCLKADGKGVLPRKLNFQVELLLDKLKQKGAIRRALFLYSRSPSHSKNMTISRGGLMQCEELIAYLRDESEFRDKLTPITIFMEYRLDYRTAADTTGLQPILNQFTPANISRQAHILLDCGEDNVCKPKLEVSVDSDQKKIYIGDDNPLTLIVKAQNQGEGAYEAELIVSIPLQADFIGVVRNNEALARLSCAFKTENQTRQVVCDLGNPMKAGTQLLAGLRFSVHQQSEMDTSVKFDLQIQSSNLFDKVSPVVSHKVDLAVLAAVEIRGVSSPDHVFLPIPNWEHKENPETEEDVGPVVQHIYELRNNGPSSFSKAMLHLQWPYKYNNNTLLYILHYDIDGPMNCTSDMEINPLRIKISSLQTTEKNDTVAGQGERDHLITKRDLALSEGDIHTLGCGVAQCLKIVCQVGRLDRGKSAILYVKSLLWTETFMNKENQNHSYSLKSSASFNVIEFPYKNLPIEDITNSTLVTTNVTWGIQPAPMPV
Chain of αvβ1 (P05556 21-728 limits assumed): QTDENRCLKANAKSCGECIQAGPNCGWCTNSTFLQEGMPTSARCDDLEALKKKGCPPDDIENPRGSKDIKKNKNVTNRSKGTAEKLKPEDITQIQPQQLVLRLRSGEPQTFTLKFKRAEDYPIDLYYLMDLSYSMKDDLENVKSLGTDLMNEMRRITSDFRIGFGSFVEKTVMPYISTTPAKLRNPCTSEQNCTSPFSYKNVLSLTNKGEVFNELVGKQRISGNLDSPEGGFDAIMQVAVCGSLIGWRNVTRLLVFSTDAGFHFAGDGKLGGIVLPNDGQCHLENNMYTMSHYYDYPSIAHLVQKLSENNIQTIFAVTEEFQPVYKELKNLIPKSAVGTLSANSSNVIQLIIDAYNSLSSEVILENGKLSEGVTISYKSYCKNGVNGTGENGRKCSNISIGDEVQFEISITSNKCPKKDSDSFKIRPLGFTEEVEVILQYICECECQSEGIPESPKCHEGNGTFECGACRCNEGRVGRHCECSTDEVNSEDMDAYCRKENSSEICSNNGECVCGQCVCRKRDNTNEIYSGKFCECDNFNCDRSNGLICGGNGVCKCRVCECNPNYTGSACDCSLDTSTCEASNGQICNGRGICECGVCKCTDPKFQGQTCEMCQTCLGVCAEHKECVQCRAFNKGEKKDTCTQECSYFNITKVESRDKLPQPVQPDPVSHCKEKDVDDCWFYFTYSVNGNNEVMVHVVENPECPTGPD
Procedure: as §1
Solid Phase Integrin αvβ1 Assay
96-well microtiter plates (4 HBX Immulon; Thermo Fisher Scientific, Waltham, MA) were coated with 100 μL/well of 1 μg/mL recombinant TGFb1-LAP in TBS at 4° C., overnight. The coating solution was removed, and plates were blocked with 200 μL/well of blocking and binding buffer (2% BSA/TBST, 1 mM MnCl2) at room temperature for 1 hr. Blocking buffer was removed and 50 μL of binding buffer and testing compounds were added. 50 μL of diluted αvβ1 (0.2 ug/mL in binding buffer) was added to wells (100 μL/well total) for and plates incubated for 90 min at room temperature. Wells were washed thrice with washing buffer (TBS, 0.05% Tween, 1 mM MnCl2) and plates were incubated with 100 μL/well of a 1:12500 dilution of streptavidin-horseradish peroxidase conjugate (Thermo Fisher Scientific) in binding buffer for 20 min at room temperature. Bound protein was detected using the substrate TMB. The IC50 values for testing compounds were calculated by Levenberg-Marquardt four parameter fitting logistics.

Chain of αvβ6 (P06756 31-992 limits assumed): as the sequence (P06756 31-992 limits assumed) above
Chain of αvβ6 (P18564 22-707 limits assumed): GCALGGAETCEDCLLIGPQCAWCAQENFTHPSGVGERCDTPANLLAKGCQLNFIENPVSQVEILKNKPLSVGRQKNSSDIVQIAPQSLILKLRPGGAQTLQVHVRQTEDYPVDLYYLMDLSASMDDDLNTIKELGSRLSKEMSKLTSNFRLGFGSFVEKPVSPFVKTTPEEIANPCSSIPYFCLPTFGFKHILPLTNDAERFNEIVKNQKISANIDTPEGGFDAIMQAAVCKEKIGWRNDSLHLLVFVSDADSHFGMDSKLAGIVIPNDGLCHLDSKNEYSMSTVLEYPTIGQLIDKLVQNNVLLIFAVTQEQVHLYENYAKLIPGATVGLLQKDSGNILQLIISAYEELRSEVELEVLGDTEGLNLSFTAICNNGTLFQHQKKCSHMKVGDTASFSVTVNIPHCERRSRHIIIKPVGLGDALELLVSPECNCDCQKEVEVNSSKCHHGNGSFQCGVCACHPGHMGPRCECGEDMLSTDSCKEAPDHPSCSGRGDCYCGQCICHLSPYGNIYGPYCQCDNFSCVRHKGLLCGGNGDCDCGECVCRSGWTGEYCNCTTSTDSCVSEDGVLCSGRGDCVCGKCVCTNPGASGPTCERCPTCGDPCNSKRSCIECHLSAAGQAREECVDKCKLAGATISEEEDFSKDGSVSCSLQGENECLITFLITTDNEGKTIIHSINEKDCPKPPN

Structure (SMILES): O=C(O)C[C@H](NC(=O)[C@@H]1CCCN(CCCc2ccc3c(n2)NCCC3)C1)c1cccc(C(F)(F)F)c1 (single isomer, unassigned) [Compound 203-A, hydrochloride]
- IC50 [1]: 100 to 1000 nM
- IC50 [2]: > 1000 nM

Structure (SMILES): O=C(O)C[C@@H](NC(=O)[C@@H]1CCCN(CCCc2ccc3c(n2)NCCC3)C1)c1cccc(C(F)(F)F)c1 (single isomer, unassigned) [Compound 203-B, hydrochloride]
- IC50 [1]: < 100 nM
- IC50 [2]: < 100 nM

Structure (SMILES): O=C(O)C[C@@H](NC(=O)[C@@H]1CCCN(CCCc2ccc3c(n2)NCCC3)C1)c1ccc2c(c1)CCCC2 (single isomer, unassigned) [Compound 204-B]
- IC50 [1]: < 100 nM
- IC50 [2]: < 100 nM

Structure (SMILES): O=C(O)C[C@H](NC(=O)[C@@H]1CCCN(CCCc2ccc3c(n2)NCCC3)C1)c1cccc(N2CC3CCC2CO3)c1 (single isomer, unassigned) [Compound 241-A]
- IC50 [1]: < 100 nM
- IC50 [2]: < 100 nM

Structure (SMILES): O=C(O)C[C@H](NC(=O)[C@@H]1CCCN(CCCc2ccc3c(n2)NCCC3)C1)c1cccc(N2CC3CCC2CO3)c1 (single isomer, unassigned) [Compound 241-B]
- IC50 [1]: < 100 nM
- IC50 [2]: < 100 nM

Structure (SMILES): O=C(O)C(CNC(=O)[C@@H]1CCCN(CCCc2ccc3c(n2)NCCC3)C1)c1ccc(C2CC2)cc1 (single isomer, unassigned) [Compound 259-B]
- IC50 [1]: 100 to 1000 nM
- IC50 [2]: < 100 nM

Structure (SMILES): O=C(O)C[C@H](NC(=O)[C@@H]1CCCN(CCCc2ccc3c(n2)NCCC3)C1)c1ccc2c(c1)CCC2 [Compound 201-A, 3-(2,3-dihydro-1H-inden-5-yl)-3-((R)-1-(3-(5,6,7,8-tetrahydro-1,8-naphthyridin-2-yl)propyl)piperidine-3-carboxamido)propanoic acid hydrochloride]
- IC50 [1]: < 100 nM
- IC50 [2]: 100 to 1000 nM

Structure (SMILES): O=C(O)C[C@@H](NC(=O)[C@@H]1CCCN(CCCc2ccc3c(n2)NCCC3)C1)c1ccc2c(c1)CCC2 [Compound 201-B, 3-(2,3-dihydro-1H-inden-5-yl)-3-((R)-1-(3-(5,6,7,8-tetrahydro-1,8-naphthyridin-2-yl)propyl)piperidine-3-carboxamido)propanoic acid hydrochloride]
- IC50 [1]: < 100 nM
- IC50 [2]: < 100 nM

Structure (SMILES): O=C(O)C[C@H](NC(=O)[C@@H]1CCCN(CCCc2ccc3c(n2)NCCC3)C1)c1ccccc1 [Compound 202, (S)-3-phenyl-3-((R)-1-(3-(5,6,7,8-tetrahydro-1,8-naphthyridin-2-yl)propyl)piperidine-3-carboxamido)propanoic acid hydrochloride]
- IC50 [1]: < 100 nM
- IC50 [2]: < 100 nM

Structure (SMILES): O=C(O)C[C@H](NC(=O)[C@@H]1CCCN(CCCc2ccc3c(n2)NCCC3)C1)c1ccc2c(c1)CCCC2 [Compound 204-A, 3-((R)-1-(3-(5,6,7,8-tetrahydro-1,8-naphthyridin-2-yl)propyl)piperidine-3-carboxamido)-3-(5,6,7,8-tetrahydronaphthalen-2-yl)propanoic acid]
- IC50 [1]: < 100 nM
- IC50 [2]: < 100 nM

Structure (SMILES): O=C(O)C[C@H](NC(=O)[C@@H]1CCCN(CCCc2ccc3c(n2)NCCC3)C1)c1cccc(Br)c1 [Compound 205, (S)-3-(3-bromophenyl)-3-((R)-1-(3-(5,6,7,8-tetrahydro-1,8-naphthyridin-2-yl)propyl)piperidine-3-carboxamido)propanoic acid hydrochloride]
- IC50 [1]: < 100 nM
- IC50 [2]: < 100 nM

Structure (SMILES): O=C(O)C[C@@H](NC(=O)[C@@H]1CCCN(CCCc2ccc3c(n2)NCCC3)C1)c1ccc2ccccc2c1 [Compound 206, (R)-3-(naphthalen-2-yl)-3-((R)-1-(3-(5,6,7,8-tetrahydro-1,8-naphthyridin-2-yl)propyl)piperidine-3-carboxamido)propanoic acid hydrochloride]
- IC50 [1]: < 100 nM
- IC50 [2]: < 100 nM

Structure (SMILES): O=C(O)C[C@H](NC(=O)[C@@H]1CCCN(CCCc2ccc3c(n2)NCCC3)C1)c1ccc2ccccc2c1 [Compound 207, (S)-3-(naphthalen-2-yl)-3-((R)-1-(3-(5,6,7,8-tetrahydro-1,8-naphthyridin-2-yl)propyl)piperidine-3-carboxamido)propanoic acid hydrochloride]
- IC50 [1]: 100 to 1000 nM
- IC50 [2]: 100 to 1000 nM

Structure (SMILES): O=C(O)C[C@@H](NC(=O)[C@@H]1CCCN(CCCc2ccc3c(n2)NCCC3)C1)c1cc(F)cc(C(F)(F)F)c1 [Compound 208-A, 3-(3-fluoro-5-(trifluoromethyl)phenyl)-3-((R)-1-(3-(5,6,7,8-tetrahydro-1,8-naphthyridin-2-yl)propyl)piperidine-3-carboxamido)propanoic acid]
- IC50 [1]: < 100 nM
- IC50 [2]: < 100 nM

Structure (SMILES): O=C(O)C[C@H](NC(=O)[C@@H]1CCCN(CCCc2ccc3c(n2)NCCC3)C1)c1cc(F)cc(C(F)(F)F)c1 [Compound 208-B, 3-(3-fluoro-5-(trifluoromethyl)phenyl)-3-((R)-1-(3-(5,6,7,8-tetrahydro-1,8-naphthyridin-2-yl)propyl)piperidine-3-carboxamido)propanoic acid]
- IC50 [1]: 100 to 1000 nM
- IC50 [2]: > 1000 nM

Structure (SMILES): O=C(O)C[C@H](NC(=O)[C@@H]1CCCN(CCCc2ccc3c(n2)NCCC3)C1)c1cccc(Oc2ccccc2)c1 [Compound 209-A, 3-(3-phenoxyphenyl)-3-((R)-1-(3-(5,6,7,8-tetrahydro-1,8-naphthyridin-2-yl)propyl)piperidine-3-carboxamido)propanoic acid]
- IC50 [1]: < 100 nM
- IC50 [2]: < 100 nM

Structure (SMILES): CC1(C)CN(c2cccc([C@@H](NC(=O)[C@@H]3CCCN(CCCc4ccc5c(n4)NCCC5)C3)C(F)(F)C(=O)O)c2)CCO1 [Compound 300, (R)-3-(3-(2,2-dimethylmorpholino)phenyl)-2,2-difluoro-3-((R)-1-(3-(5,6,7,8-tetrahydro-1,8-naphthyridin-2-yl)propyl)piperidine-3-carboxamido)propanoic acid]
- IC50 [2]: < 100 nM

Structure (SMILES): O=C(N[C@@H](CNC(=O)[C@@H]1CCCN(CCCc2ccc3c(n2)NCCC3)C1)C(=O)O)c1c(F)cccc1F [Compound 310]
- IC50 [1]: 100 to 1000 nM

Structure (SMILES): O=C(NC[C@@H](C(=O)O)c1ccc(-c2ccccc2)cc1)[C@@H]1CCCN(CCCc2ccc3c(n2)NCCC3)C1 [Compound 343]
- IC50 [1]: < 100 nM

Structure (SMILES): O=C(N[C@@H](CNC(=O)[C@@H]1CCCN(CCCc2ccc3c(n2)NCCC3)C1)C(=O)O)c1cccc(C2CC2)c1 [Compound 370]
- IC50 [1]: < 100 nM

Structure (SMILES): CC(C)CNC(=O)[C@@H]1CCCC[C@H]1C(=O)N[C@@H](CNC(=O)[C@@H]1CCCN(CCCc2ccc3c(n2)NCCC3)C1)C(=O)O [Compound 526]
- IC50 [2]: < 100 nM

Structure (SMILES): O=C(O)C[C@H](NC(=O)[C@@H]1CCCN(CCCc2ccc3c(n2)NCCC3)C1)c1cccc(-n2cccn2)c1 [Compound 537]
- IC50 [2]: < 100 nM

Structure (SMILES): O=C(Cc1ccccc1Cl)N[C@@H](CNC(=O)[C@@H]1CCCN(CCCc2ccc3c(n2)NCCC3)C1)C(=O)O [Compound 545]
- IC50 [1]: < 100 nM

Structure (SMILES): O=C(N[C@@H](CNC(=O)[C@@H]1CCCN(CCCc2ccc3c(n2)NCCC3)C1)C(=O)O)c1ccc2c(c1)CCC2 [Compound 548]
- IC50 [1]: < 100 nM

Structure (SMILES): O=C(Cc1ccccc1)N[C@@H](CNC(=O)[C@@H]1CCCN(CCCc2ccc3c(n2)NCCC3)C1)C(=O)O [Compound 550]
- IC50 [1]: < 100 nM

Structure (SMILES): O=C(O)C[C@H](NC(=O)[C@@H]1CCCN(CCCc2ccc3c(n2)NCCC3)C1)c1cc(F)cc(C2CC2)c1 [Compound 558]
- IC50 [2]: < 100 nM

Structure (SMILES): O=C(NC[C@H](Nc1cc(-c2ccccc2)ncn1)C(=O)O)[C@@H]1CCCN(CCCc2ccc3c(n2)NCCC3)C1 [Compound 564]
- IC50 [1]: < 100 nM

Structure (SMILES): O=C(NC[C@H](Nc1ccccc1C1CC(F)(F)C1)C(=O)O)[C@@H]1CCCN(CCCc2ccc3c(n2)NCCC3)C1 [Compound 590]
- IC50 [1]: < 100 nM

Structure (SMILES): O=C(NC[C@H](Nc1cccnc1C1CC(F)(F)C1)C(=O)O)[C@@H]1CCCN(CCCc2ccc3c(n2)NCCC3)C1 [Compound 591]
- IC50 [1]: < 100 nM

Structure (SMILES): O=C(NC[C@H](Nc1cccc(C2CC(F)(F)C2)c1)C(=O)O)[C@@H]1CCCN(CCCc2ccc3c(n2)NCCC3)C1 [Compound 592]
- IC50 [1]: < 100 nM

Structure (SMILES): CC1(C)CN(c2cccc([C@H](CNC(=O)[C@@H]3CCCN(CCCc4ccc5c(n4)NCCC5)C3)C(=O)O)c2)CCO1 [Compound 594]
- IC50 [1]: 100 to 1000 nM

Structure (SMILES): CC1(C)COCCN1c1cccc([C@H](CNC(=O)[C@@H]2CCCN(CCCc3ccc4c(n3)NCCC4)C2)C(=O)O)c1 [Compound 596]
- IC50 [1]: < 100 nM

Structure (SMILES): CC1(C)CCCN(c2cccc([C@H](CNC(=O)[C@@H]3CCCN(CCCc4ccc5c(n4)NCCC5)C3)C(=O)O)c2)C1 [Compound 598]
- IC50 [1]: > 1000 nM

Structure (SMILES): CC1(C)CCN(c2cccc([C@H](CNC(=O)[C@@H]3CCCN(CCCc4ccc5c(n4)NCCC5)C3)C(=O)O)c2)CC1 [Compound 600]
- IC50 [1]: 100 to 1000 nM

Structure (SMILES): C[C@@H]1CN(c2cccc([C@H](CNC(=O)[C@@H]3CCCN(CCCc4ccc5c(n4)NCCC5)C3)C(=O)O)c2)C[C@H](C)O1 [Compound 602]
- IC50 [1]: 100 to 1000 nM
